Where a name gives a salt, the structure may show the parent alone. Read-outs that look alike come from different tables or passages of the source.
Legend:
GST-ALK5 = target: T1, GST-ALK5 (Homo sapiens, UniProt P36897); experiment: In-vitro (enzyme) kinase assay, 384-well flashplate (Example 36); type: biochemical; conditions: GST-ALK5, GST-SMAD2 substrate, 3 mM ATP, 30° C., 45 min; read-out: TβR activity (Example 36)
T1 sequence (P36897 34-503): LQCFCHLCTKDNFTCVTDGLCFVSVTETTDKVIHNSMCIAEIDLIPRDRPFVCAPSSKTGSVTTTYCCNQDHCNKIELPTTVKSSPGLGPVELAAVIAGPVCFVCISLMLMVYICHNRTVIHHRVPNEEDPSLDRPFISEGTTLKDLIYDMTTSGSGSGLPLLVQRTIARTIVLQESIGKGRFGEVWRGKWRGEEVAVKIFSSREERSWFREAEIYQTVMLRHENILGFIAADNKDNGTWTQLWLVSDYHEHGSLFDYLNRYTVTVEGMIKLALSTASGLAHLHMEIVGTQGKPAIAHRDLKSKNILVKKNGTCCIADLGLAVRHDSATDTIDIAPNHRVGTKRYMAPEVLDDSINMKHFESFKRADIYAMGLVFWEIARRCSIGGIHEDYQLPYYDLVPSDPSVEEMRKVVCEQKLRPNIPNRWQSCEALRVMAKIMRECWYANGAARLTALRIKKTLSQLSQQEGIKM
Method in brief: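 Radiometric flashplate assay: 31.2 nM GST-ALK5 phosphorylating 439 nM GST-SMAD2 with 3 mM ATP plus ³³P-ATP, in HEPES/MgCl2/MnCl2/DTT/BSA buffer pH 7.4, 45 min at 30 °C, 5-10 compound concentrations. EDTA stop, filtration and washing, then radioactivity counted; IC50 derived from the curve.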

[1] = system: TGF-beta-induced phosphorylation of Smad2 and Smad3 in Mv1-Lu cells; experiment: Inhibition of Smad2/3 phosphorylation in Mv1Lu cells (Example 35A); type: cell-based, mink Mustela vison; conditions: Neogale vison, read-out: TβR activity (Example 35A)
Method in brief: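 Serum-starved (16-20 h) Mv1-Lu mink lung epithelial cells were pre-incubated 1.5 h with compound dilutions (0.2% DMSO), then stimulated 1 h with 5 ng/ml TGF-beta 1. Phospho-Smad2 (Ser465/467)/Smad3 (Ser423/425) in lysates was measured by ELISA. IC50 came from dose-response fits between stimulated and unstimulated controls.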

[2] = Mv1-Lu cells, TGF-beta 1 5 ng/ml, phospho-Smad2/3 ELISA

In the case of `CN1CCN(c2nc(-c3cncc(-c4cc(-c5ccccc5F)nc5ncccc45)c3)no2)CC1` [compound 54, 2-(2-Fluoro-phenyl)-4-{5-[5-(4-methyl-piperazin-1-yl)-[1,2,4]oxadiazol-3-yl]-pyridin-3-yl}-[1,8]naphthyridine], the IC50 (GST-ALK5) is reported as < 100 nM and the IC50 [1, 2] is reported as 1000 to 10000 nM.

In the case of `NS(=O)(=O)c1cccc(-c2cncc(-c3cc(-c4cc(Cl)ccc4F)nc4ncccc34)c2)c1` [compound 135, 3-{5-[2-(5-Chloro-2-fluoro-phenyl)-[1,8]naphthyridin-4-yl]-pyridin-3-yl}-benzene-sulfonamide], the IC50 (GST-ALK5) is reported as < 100 nM and the IC50 [1, 2] is reported as 100 to 1000 nM.

For `Cn1ccc2cc(-c3cncc(-c4cc(-c5cc(Cl)ccc5F)nc5ncccc45)c3)ccc21` [compound 150, 2-(5-Chloro-2-fluoro-phenyl)-4-[5-(1-methyl-1H-indol-5-yl)-pyridin-3-yl]-[1,8]naphthyridine], the IC50 (GST-ALK5) was 100 to 1000 nM and the IC50 [1, 2] was < 100 nM.

For `Cn1cc(-c2cncc(-c3cc(-c4cc(C(F)(F)F)ccc4F)nc4ncccc34)c2)cn1` [compound 8, 2-(2-Fluoro-5-trifluoromethyl-phenyl)-4-[5-(1-methyl-1H-pyrazol-4-yl)-pyridin-3-yl]-[1,8]naphthyridine], the IC50 (GST-ALK5) was < 100 nM and the IC50 [1, 2] was 100 to 1000 nM.

With `Fc1ccc(Cl)cc1-c1cc(-c2cncc(-c3ccnc(N4CCNCC4)c3)c2)c2cccnc2n1` [compound 105, 2-(5-Chloro-2-fluoro-phenyl)-4-(2′-piperazin-1-yl-[3,4′]bipyridinyl-5-yl)-[1,8]naphthyridine] the IC50 (GST-ALK5) was < 100 nM and the IC50 [1, 2] was < 100 nM.

Work on `O=S(=O)(c1cccc(-c2cncc(-c3cc(-c4cc(Cl)ccc4F)nc4ncccc34)c2)c1)N1CCNCC1` [compound 145, 2-(5-Chloro-2-fluoro-phenyl)-4-{5-[3-(piperazine-1-sulfonyl)-phenyl]-pyridin-3-yl}-[1,8]naphthyridine] yielded an IC50 (GST-ALK5) of 100 to 1000 nM and an IC50 [1, 2] of 1000 to 10000 nM.

For `N#Cc1ccnc(-c2cncc(-c3cc(-c4cc(Cl)ccc4F)nc4ncccc34)c2)c1` [compound 133, 5′-[2-(5-Chloro-2-fluoro-phenyl)-[1,8]naphthyridin-4-yl]-[2,3′]bipyridinyl-4-carbonitrile], the IC50 (GST-ALK5) was > 10000 nM and the IC50 [1, 2] was > 10000 nM.

`Fc1ccccc1-c1cc(-c2cncc(-c3cnc4[nH]ncc4c3)c2)c2cccnc2n1` [compound 80, 2-(2-Fluoro-phenyl)-4-[5-(1H-pyrazolo[3,4-b]pyridin-5-yl)-pyridin-3-yl]-[1,8]naphthyridine] gave an IC50 (GST-ALK5) of 100 to 1000 nM and an IC50 [1, 2] of 100 to 1000 nM.

For `Fc1ccc(Cl)cc1-c1cc(-c2ccc(-c3ccccc3)nc2)c2cccnc2n1` [compound 5599, 2-(5-Chloro-2-fluoro-phenyl)-4-(6-phenyl-pyridin-3-yl)-[1,8]naphthyridine], the IC50 (GST-ALK5) was > 10000 nM and the IC50 [1, 2] was > 10000 nM.

With `Fc1ccc(Cl)cc1-c1cc(-c2cncc(-c3ccc(N4CCNCC4)nc3)c2)c2cccnc2n1` [compound 95, 2-(5-Chloro-2-fluoro-phenyl)-4-(6′-piperazin-1-yl-[3,3′]bipyridinyl-5-yl)-[1,8]naphthyridine] the IC50 (GST-ALK5) was < 100 nM and the IC50 [1, 2] was 100 to 1000 nM.

In the case of `Fc1ccc(Cl)cc1-c1cc(-c2cncc(-c3ccc(CCN4CCOCC4)cc3)c2)c2cccnc2n1` [compound 153, 2-(5-Chloro-2-fluoro-phenyl)-4-{5-[4-(2-morpholin-4-yl-ethyl)-phenyl]-pyridin-3-yl}-[1,8]naphthyridine], the IC50 (GST-ALK5) is reported as < 100 nM and the IC50 [1, 2] is reported as < 100 nM.

In the case of `CN1CCN(c2nc(-c3cncc(-c4cc(-c5cc(Cl)ccc5F)nc5ncccc45)c3)no2)CC1` [compound 56, 2-(5-chloro-2-fluoro-phenyl)-4-{5-[5-(4-methyl-piperazin-1-yl)-[1,2,4]oxadiazol-3-yl]-pyridin-3-yl}-[1,8]naphthyridine], the IC50 (GST-ALK5) is reported as < 100 nM and the IC50 [1, 2] is reported as 100 to 1000 nM.

With `CN1CCN(c2ccnc(-c3cncc(-c4cc(-c5cc(Cl)ccc5F)nc5ncccc45)c3)c2)CC1` [compound 132, 2-(5-Chloro-2-fluoro-phenyl)-4-[4-(4-methyl-piperazin-1-yl)-[2,3′]bipyridinyl-5′-yl]-[1,8]naphthyridine] the IC50 (GST-ALK5) was < 100 nM and the IC50 [1, 2] was < 100 nM.

`Fc1ccc(C(F)(F)F)cc1-c1cc(-c2cncc(-c3cnn(C4CCNCC4)c3)c2)c2cccnc2n1` [compound 18, 2-(2-Fluoro-5-trifluoromethyl-phenyl)-4-[5-(1-piperidin-4-yl-1H-pyrazol-4-yl)-pyridin-3-yl]-[1,8]naphthyridine dihydrochloride] was tested, and the IC50 (GST-ALK5) was < 100 nM and the IC50 [1] was < 100 nM.

`Fc1ccc(Cl)cc1-c1cc(-c2cncc(-c3cccnc3)c2)c2cccnc2n1` [compound 104, 4-[3,3′]Bipyridinyl-5-yl-2-(5-chloro-2-fluoro-phenyl)-[1,8]naphthyridine] was tested, and the IC50 (GST-ALK5) was < 100 nM and the IC50 [1, 2] was 100 to 1000 nM.

With `CN1CCC(n2cc(-c3cncc(-c4cc(-c5cc(C(F)(F)F)ccc5F)nc5ncccc45)c3)cn2)CC1` [compound 23, 2-(2-fluoro-5-trifluoromethyl-phenyl)-4-{5-[1-(1-methyl-piperidin-4-yl)-1H-pyrazol-4-yl]-pyridin-3-yl}-[1,8]naphthyridine] the IC50 (GST-ALK5) was < 100 nM and the IC50 [1, 2] was < 100 nM.

For `Fc1ccc(F)c(-c2cc(-c3cncc(-c4cccc(OCC5CCNCC5)c4)c3)c3cccnc3n2)c1` [compound 147, 2-(2,5-Difluoro-phenyl)-4-{5-[3-(piperidin-4-ylmethoxy)-phenyl]-pyridin-3-yl}-[1,8]naphthyridine], the IC50 (GST-ALK5) was 100 to 1000 nM and the IC50 [1, 2] was 1000 to 10000 nM.

In the case of `Fc1ccc(Cl)cc1-c1cc(-c2cncc(-c3ccc4c(c3)NCCC4)c2)c2cccnc2n1` [compound 151, 2-(5-Chloro-2-fluoro-phenyl)-4-[5-(1,2,3,4-tetrahydro-quinolin-7-yl)-pyridin-3-yl]-[1,8]naphthyridine], the IC50 (GST-ALK5) is reported as 100 to 1000 nM and the IC50 [1, 2] is reported as < 100 nM.

In the case of `CC(=O)Nc1cccc(-c2cncc(-c3cc(-c4cc(Cl)ccc4F)nc4ncccc34)c2)n1` [compound 115, N-{5′-[2-(5-Chloro-2-fluoro-phenyl)-[1,8]naphthyridin-4-yl]-[2,3′]bipyridinyl-6-yl}-acetamide], the IC50 (GST-ALK5) is reported as < 100 nM and the IC50 [1, 2] is reported as 100 to 1000 nM.

In the case of `COCCN1CCC(n2cc(-c3cncc(-c4cc(-c5ccccc5F)nc5ncccc45)c3)cn2)CC1` [compound 52, 2-(2-Fluoro-phenyl)-4-(5-{1-[1-(2-methoxy-ethyl)-piperidin-4-yl]-1H-pyrazol-4-yl}-pyridin-3-yl)-[1,8]naphthyridine], the IC50 (GST-ALK5) is reported as < 100 nM and the IC50 [1, 2] is reported as < 100 nM.

For `CN1CCN(c2cc(-c3cncc(-c4cc(-c5cc(Cl)ccc5F)nc5ncccc45)c3)ncn2)CC1` [compound 119, 2-(5-Chloro-2-fluoro-phenyl)-4-{5-[6-(4-methyl-piperazin-1-yl)-pyrimidin-4-yl]-pyridin-3-yl}-[1,8]naphthyridine], the IC50 (GST-ALK5) was 100 to 1000 nM and the IC50 [1, 2] was 100 to 1000 nM.

`CC(=O)Nc1ccc(-c2cncc(-c3cc(-c4cc(Cl)ccc4F)nc4ncccc34)c2)nn1` [compound 122, N-(6-{5-[2-(5-Chloro-2-fluoro-phenyl)-[1,8]naphthyridin-4-yl]-pyridin-3-yl}-pyridazin-3-yl)-acetamide] was tested, and the IC50 (GST-ALK5) was 100 to 1000 nM and the IC50 [1, 2] was 100 to 1000 nM.

In the case of `CN1CCN(CCCn2cc(-c3cncc(-c4cc(-c5ccccc5F)nc5ncccc45)c3)cn2)CC1` [compound 86, 2-(2-Fluoro-phenyl)-4-(5-{1-[3-(4-methyl-piperazin-1-yl)-propyl]-1H-pyrazol-4-yl}-pyridin-3-yl)-[1,8]naphthyridine], the IC50 (GST-ALK5) is reported as < 100 nM and the IC50 [1, 2] is reported as 100 to 1000 nM.

`CN1CCN(c2ccc(-c3cncc(-c4cc(-c5cc(F)ccc5F)nc5ncccc45)c3)cc2)CC1` [compound 114, 2-(2,5-Difluoro-phenyl)-4-{5-[4-(4-methyl-piperazin-1-yl)-phenyl]-pyridin-3-yl}-[1,8]naphthyridine] was tested, and the IC50 (GST-ALK5) was < 100 nM and the IC50 [1, 2] was < 100 nM.

With `OCCCn1cc(-c2cncc(-c3cc(-c4cc(F)ccc4F)nc4ncccc34)c2)cn1` [compound 89, 3-(4-{5-[2-(2,5-Difluoro-phenyl)-[1,8]naphthyridin-4-yl]-pyridin-3-yl}-pyrazol-1-yl)-propan-1-ol] the IC50 (GST-ALK5) was < 100 nM and the IC50 [1, 2] was 100 to 1000 nM.

`CN(C)CCc1ccc(-c2cncc(-c3cc(-c4cc(F)ccc4F)nc4ncccc34)c2)cc1` [compound 177, [2-(4-{5-[2-(2,5-Difluoro-phenyl)-[1,8]naphthyridin-4-yl]-pyridin-3-yl}-phenyl)-ethyl]-dimethyl-amine] was tested, and the IC50 (GST-ALK5) was < 100 nM and the IC50 [1, 2] was < 100 nM.

In the case of `Fc1ccc(Cl)cc1-c1cc(-c2cncc(-c3cnn(CCN4CCOCC4)c3)c2)c2cccnc2n1` [compound 96, 2-(5-Chloro-2-fluoro-phenyl)-4-{5-[1-(2-morpholin-4-yl-ethyl)-1H-pyrazol-4-yl]-pyridin-3-yl}-[1,8]naphthyridine], the IC50 (GST-ALK5) is reported as < 100 nM and the IC50 [1, 2] is reported as < 100 nM.

Reference: patent publication US8912216B2, “Hetaryl-[1,8]naphthyridine derivatives” (Merck Patent GmbH, priority 2010, dated 2014)
